Results from patent publication US20240409536A1, “COMPOUNDS AND METHODS FOR MODULATING SPLICING” (REMIX THERAPEUTICS INC., priority 2021, published 2024).
Read-outs that look alike come from different tables or passages of the source.

How the values were obtained:
HTT mRNA = assay: Gene panel canonical junction qPCR assay, HTT CJ mRNA decrease; type: cell-based, human; conditions: decrease in CJ mRNA levels, read-out: HTT IC50
Procedure: (§1) Compounds described herein were used to modulate RNA transcript abundance in cells. The expression of a target mRNA was measured by detecting the formation of an exon-exon junction in the canonical transcript (CJ). A compound mediated exon-inclusion event was detected by observing an increase in formation of a new junction with an alternative exon (AJ). Real-time qPCR assays were used to detect these splicing switches and interrogate the potency of various compounds towards different target genes. A high-throughput real time quantitative PCR (RT-qPCR) assay was developed to measure these two isoforms of the mRNA (CJ and AJ) for exemplary genes, such as HTT, SMN2, and MYB, together with a control housekeeping gene, GAPDH or GUSB or PPIA, used for normalization. Briefly, the A673 or K562 cell line was treated with various compounds described herein (e.g., compounds of Formula (I), (I), or (III)). After treatment, the levels of the HTT, MYB, or SMN2 mRNA targets were determined from each sample of cell lysate by cDNA synthesis followed by qPCR.
(§2) The data analysis was performed by first determining the ΔCt vs the housekeeper gene. This ΔCt was then normalized against the DMSO control (ΔΔCt) and converted to RQ (relative quantification) using the 2^(−ΔΔCt) equation. The RQ were then converted to a percentage response by arbitrarily setting an assay window of 3.5 and 4.0 ΔCt for HTT-CJ and MYB-CJ respectively and an assay window of 9 and 3 ΔCt for HTT-AJ and MYB-AJ in 96 well format (50,000 K562 cells/well and 15,000 A673 cells per well) and an assay window of 3 and 4 ΔCt for HTT-CJ and MYB-CJ respectively and an assay window of 5 and 3 ΔCt for HTT-AJ and MYB-AJ respectively in 384 well format (8,000 K562 cells/well example). […] The percentage response was then fitted to the 4 parametric logistic equation to evaluate the concentration dependence of compound treatment. The increase in AJ mRNA is reported as AC50 (compound concentration having […] in AJ increase) while the decrease in CJ mRNA levels is reported as IC50 (compound concentration having 50) response in CJ decrease).
(§3) Additional studies were carried out for a larger panel of genes using the protocol provided above. The junction between flanking upstream and downstream exons was used to design canonical junction qPCR assays. At least one of the forward primer, reverse primer or the CY5-labeled 5′ nuclease probe (with 3′ quencher such as ZEN/Iowa Black FQ) was designed to overlap with the exon junction to capture the CJ mRNA transcript. BLAST was used to confirm the specificity of the probeset and parameters such as melting temperature, GC content, amplicon size, and primer dimer formation are considered during their design. Data for the decrease in CJ mRNA levels for four exemplary genes (HTT, SMN2, MYB, and Target C) analyzed in this panel are reported as IC50 (compound concentration having […] in CJ decrease).
(§4) A summary of the results from the panel is illustrated in Tables 5A and 51B, wherein “A” represents an IC50 of less than 100 nM; “B” represents an IC50 of between 100 nM and 1 μM; and “C” represents an IC50 of between 1 μM and 10 μM; and “D” represents an IC50 of greater than 10 μM.

MYB mRNA = assay: Gene panel canonical junction qPCR assay, MYB CJ mRNA decrease; type: cell-based, human; conditions: decrease in CJ mRNA levels, read-out: MYB IC50
Procedure: as §1, §2, §3, §4

SMN2 mRNA = assay: Gene panel canonical junction qPCR assay, SMN2 CJ mRNA decrease; type: cell-based, human; conditions: decrease in CJ mRNA levels, read-out: SMN2 IC50
Procedure: as §1, §2, §3, §4

Target C mRNA = assay: Gene panel canonical junction qPCR assay, Target C CJ mRNA decrease; type: cell-based; conditions: Homo sapiens, decrease in CJ mRNA levels, read-out: Target C IC50
Procedure: as §1, §2, §3, §4

IC50 (HTT mRNA; Homo sapiens) | IC50 (MYB mRNA; Homo sapiens) | IC50 (SMN2 mRNA; Homo sapiens) | IC50 (Target C mRNA) | IC50 (HTT mRNA) | IC50 (MYB mRNA) | IC50 (SMN2 mRNA) | Structure (SMILES)
1 to 10 µM | 0.1 to 1 µM | > 10 µM | – | – | – | – | Cc1cn2cc(NC(=O)c3sc(C4CCNCC4)c(C#N)c3Cl)cc(F)c2n1 [Compound 670]
> 10 µM | > 10 µM | < 0.1 µM | – | – | – | – | Cc1nc2c(F)cc(NC(=O)c3sc(N4CCNC(C)C4)cc3F)cc2s1 (stereo not drawn) [Compound 638]
1 to 10 µM | 0.1 to 1 µM | 1 to 10 µM | – | – | – | – | Cc1cn2cc(NC(=O)c3sc(C4C[C@@H](C)N[C@@H](C)C4)cc3F)cc(F)c2n1 (stereo partly drawn) [Compound 620]
0.1 to 1 µM | 0.1 to 1 µM | 1 to 10 µM | – | – | – | – | Cc1cn2cc(NC(=O)c3sc(C4CCNCC4)c(C)c3F)cc(F)c2n1 [Compound 649]
> 10 µM | 1 to 10 µM | > 10 µM | – | – | – | – | Cc1cn2cc(NC(=O)c3sc([C@@H]4CCN[C@H](C)C4)cc3F)cc(C(F)(F)F)c2n1 [Compound 668]
> 10 µM | > 10 µM | > 10 µM | – | – | – | – | Cc1cn2cc(NC(=O)c3sc(C4CCNCC4)cc3F)nc2c(C)n1 [Compound 667]
> 10 µM | 1 to 10 µM | – | > 10 µM | – | – | – | Cc1cn2cc(NC(=O)c3cc(F)c(C4CCNCC4)s3)cc(F)c2n1 [Compound 661]
0.1 to 1 µM | < 0.1 µM | 1 to 10 µM | – | – | – | – | Cn1cc2c(F)cc(NC(=O)c3sc(C4CCNCC4)cc3F)cc2n1 [Compound 656]
1 to 10 µM | 0.1 to 1 µM | 1 to 10 µM | – | – | – | – | Cc1cn2cc(NC(=O)c3cc(Cl)c(C4CCNCC4)s3)cc(F)c2n1 [Compound 666]
1 to 10 µM | 0.1 to 1 µM | – | > 10 µM | – | – | – | CCC1CN(c2cc(F)c(C(=O)Nc3cc(F)c4nc(C)cn4c3)s2)CCN1 (stereo not drawn) [Compound 603]
> 10 µM | 0.1 to 1 µM | – | > 10 µM | – | – | – | COc1cc(N2CCNC(C)C2)sc1C(=O)Nc1cc(F)c2nc(C)cn2c1 (stereo not drawn) [Compound 597]
> 10 µM | > 10 µM | > 10 µM | – | – | – | – | Cc1cn2nc(NC(=O)c3sc(C4CCNCC4)cc3F)cc2c(C)n1 [Compound 664]
– | – | – | – | 1 to 10 µM | 0.1 to 1 µM | > 10 µM | Cc1cn2cc(NC(=O)c3sc(C4CCNCC4)cc3F)cc(F)c2n1 [Compound 650]
0.1 to 1 µM | 1 to 10 µM | 1 to 10 µM | – | – | – | – | Cc1cn2cc(NC(=O)c3sc(C4CCNCC4)cc3F)cc(Cl)c2n1 [Compound 654]
